Entries after “also recorded” stand apart in the source; their conditions may differ. Where two headings read alike, the source gives them in different places.

For data set [1] the following is noted: polymorph; cited from earlier work.
For data set [2] the following is noted: oral administration; cited from earlier work.
Data set [3] deals with IL-10. Kind of data set: Serum IL-10 by ELISA in randomized, double-blind, placebo-controlled study in women with active SLE. The format is in vivo, human. The procedure: (§1) Baseline prednisone (less than 10 mg/day) and other concomitant SLE medications were held constant. The serum levels of cytokines including IL-1, IL-2, interferon-γ, IL-4, and IL-10 were determined by ELISA. The mean change from baseline to 24 weeks of therapy was analyzed. See, below.
(§2) See, Chang et al., Arthritis Rheum., 2002, 46(11):2924-27. The subjects enrolled in the study were adult women with SLE according to American College of Rheumatology (ACR) criteria (see, e.g., Tan, et al., Arthritis Rheum., 1982, 25:1271-7) and who were receiving a prednisone dose (or its corticosteroid equivalent) of 1 to 10 mg/day at the time they entered the study. […]
(§3) Serum testosterone, estradiol and cytokine profiles were measured at baseline and at last visit (i.e., after 24 weeks). Different serum cytokines including […], IL-2, IFN-γ, IL-4, and […] in the subjects were measured using ELISA kits (R&D, Minneapolis, Minn.) according to the manufacturer's instructions.
(§4) Comparisons between groups were done through an independent t-test, while comparisons within groups were done through a paired t-test. All statistical tests were evaluated at a 0.05 level of significance.

Data set [4] concerns IL-1β. Kind of data set: Serum IL-1β by ELISA in the same SLE study. The format is in vivo, human. The settings on record: after 24 weeks of 200 mg/day DHEA orally, mean ± SD, n = 15, before treatment 9.94 ± 8.92. The procedure:
as §1, §2, §3, §4

The subject of data set [5] is estradiol. Kind of data set: Hormone determination: serum estradiol in SLE study. The format is in vivo, human. As to conditions: 200 mg/day DHEA, 24 weeks. How it is done:
See, Chang et al., Arthritis Rheum., 2002, 46(11):2924-27. The subjects enrolled in the study were adult women with SLE according to American College of Rheumatology (ACR) criteria (see, e.g., Tan, et al., Arthritis Rheum., 1982, 25:1271-7) and who were receiving a prednisone dose (or its corticosteroid equivalent) of 1 to 10 mg/day at the time they entered the study. Subjects selected for the study had to have active SLE, as defined by a Systemic Lupus Activity Measure (SLAM) score of ≧7, see, e.g., Liang, et al., Arthritis Rheum., 1989, 32:1107-18, and a baseline Systemic Lupus Erythematosus Disease Activity Index (SLEDAI) score ≧2. See, Bombardier, et al., Arthritis Rheum., 1992, 35:630-40.
Subjects that were under treatment with dydroxychloroquine, azathioprine, methotrexate, or cyclophosphamide or a combination thereof, had to have been on a stable regimen with no change in dose and drug combination for at least 6 weeks prior to entry into the study. Subjects who were receiving androgens, immunoglobulins, cyclosporine A, or other immunosuppressive agents (except those noted) were excluded from the study.
as §3

Data set [6] deals with NZB/NZW mouse model of SLE. The settings on record: cited from earlier work.
The test system of data set [7] is human marrow and mononuclear cells. The settings on record: in vitro; cited from earlier work.
In data set [8] the test system is Th2 cells. As to conditions: Th2 cells stimulated by retrovirus infection; cited from earlier work.
The subject of data set [9] is peripheral blood mononuclear cells (PBMCs) from adult male lupus patients. As to conditions: pre-incubation with DHEA, concanavalin A stimulated PBMCs; cited from earlier work.
Data set [10] has as its system patients with mild to moderate SLE. As to conditions: cited from earlier work.
The mark [11] stands for this setting: 200 mg/day for 12 months, 381 women with mild/moderate SLE.
Setting [12] is: oral daily doses of 200 mg, mild to moderate SLE, van Vollenhoven et al.

Take `C[C@]12CC[C@H](O)CC1=CC[C@@H]1[C@@H]2CC[C@]2(C)C(=O)CC[C@@H]12` [DHEA form II, dehydroepiandrosterone]: the Stability result in data set [1] was “stable under typical ambient conditions”. For the same compound, the Rate of absorption result in data set [2] was “rapid rate of absorption (greater than the form I polymorph)”.
On to `C[C@]12CC[C@H](O)CC1=CC[C@@H]1[C@@H]2CC[C@]2(C)C(=O)CC[C@@H]12` [DHEA, dehydroepiandrosterone], for which the “Effect on IL-10 level (in words)” value in data set [3] (200 mg/day DHEA for 24 weeks, women with SLE, from baseline) is listed as “significant reduction; also recorded: significant IL-10 suppression”. Also, the IL-10 after treatment in data set [3] (serum, last visit after 24 weeks of 200 mg/day DHEA orally, mean ± SD, n = 15, before treatment 9.21 ± 6.75, p=0.045 vs placebo, p=0.029 vs baseline) was found to be 1.89 ± 1.47 pg/mL. For the same compound, the IL-1β after treatment in data set [4] came out at 9.20 ± 6.49 pg/mL. For the same compound, the “Estradiol change at last visit, mean” value in [5] (baseline mean 123) is -48 pg/mL. Besides, in data set [5] (baseline median 104), the “Estradiol change at last visit, median” value was -39 pg/mL. The “Median decrease in estradiol” value in [5] (placebo 31.5) came to 39.3 pg/mL. The “Onset of disease and mortality” value in data set [6] was “significantly delayed onset of disease and a reduction in mortality”. Further, in [7], the “Secretion of IL-6” value is “reduce secretion of IL-6”. Besides, in [8], the “Production of IL-6 and tumor necrosis factor alpha” value is “suppressed the production of cytokines IL-6 and tumor necrosis factor alpha”. For the same compound, the IL-4 production entry in data set [9] was “reduced the IL-4 production”. Moreover, in data set [10] (setting [11]), the Bone mineral density result was “prevented loss of bone mineral density in a significantly greater proportion of patients than placebo”; the “SLE disease and symptoms” value was “improved or stabilized SLE disease and its symptoms without clinical deterioration”. Also, in [10] (200 mg/day, women with active lupus, phase II/III, Petri et al. 2002), the Prednisone reduction result is recorded as “enabled prednisone reduction to physiologic levels in a significantly greater proportion of patients than placebo”. Moreover, in data set [10] (setting [12]), the “Steroid-sparing effect and flares” value was “may have steroid-sparing effects and reduce flares”; the Tolerability entry is recorded as “well-tolerated”. Further, the Tolerability entry in data set [10] (women with lupus, Chang et al. 2002) was “well-tolerated”.
Consider `C[C@]12CC[C@H](O)CC1=CC[C@@H]1[C@@H]2CC[C@]2(C)C(=O)CC[C@@H]12` [DHEA form I, dehydroepiandrosterone], for which, in data set [1], the Stability result is recorded as “highly stable”.

The record behind these values is US20050014734A1 (Genovate Biotechnology Co., Ltd., priority 2003, published 2005).
